Measurements from US20120276064A1, “METHODS AND COMPOSITIONS FOR REJUVENATION AND EXPANSION OF STEM CELLS” (priority 2011, published 2012).

Experiments:
young and old MuSCs = test: Bulk proliferation of MuSCs in soft hydrogel culture; type: cell-based, mouse; conditions: soft (12 kPa) hydrogel, 10 μM, one week
Method: MuSC culture and treatment. Following isolation, MuSCs were pelleted and resuspended into myogenic cell culture medium containing DMEM/F10 (50:50), 15% FBS, 2.5 ng/ml bFGF, and 1% penicillin/streptomycin. MuSCs were seeded at 1000 cells per well (24-well plate size wells, 2.0 cm^2 surface area) on laminin-tethered hydrogels of either 12 kPa (soft) or ˜10^6 kPa (rigid) rigidities. Cells were maintained at 37° C. in 5% CO2. Media was changed daily. […]
Proliferation assays. MuSC proliferation in hydrogel culture was assessed at both the clonal and bulk levels. […] Cell proliferation was monitored by time-lapse microscopy from 12 hours (day 0) to four days post-seeding as described previously using a PALM/AxioObserver Z1 system (Carl Zeiss MicroImaging) with custom environmental control chamber and motorized stage. Images were recorded every 20 min at 5× magnification. […] After one week, cells were trypsinized and counted on a hemocytometer.

[1] = tested on: p38 signaling (phosphorylation of the p38 substrate MK2); test: Phospho-MK2 flow cytometry in primary myoblasts stimulated with anisomycin and TNF; type: cell-based; conditions: primary mouse myoblasts, 10 μM pretreatment one hour, anisomycin 1 μg/ml + TNF 50 ng/ml 30 min
Method: Phospho-MK2 flow cytometry. To analyze p38 signaling, the phosphorylation of MK2, a readout of p38 kinase activity, was assayed by flow cytometry. Primary mouse myoblasts were isolated as previously described. Myoblasts were cultured on collagen-coated tissue-culture plastic dishes in myogenic cell medium and were maintained at 37° C. in 5% CO2. Myoblasts were pretreated with 0.1% DMSO carrier control or 10 μM SB202190 for one-hour and then were stimulated with anisomycin (1 μg/ml; Sigma) and TNF (50 ng/ml; R&D Systems, Minneapolis, Minn.) for 30 minutes or mock buffer (PBS). Pretreatments and stimuli were added in 50× spike solutions. After 15 minutes, cells were collected from hydrogel cultures by incubation 0.5% trypsin in PBS for 2 min at 37° C. Cells were fixed with 1.5% paraformaldehyde in PBS, permeabilized in methanol at −80° C., and stained with an AlexFluor488-conjugated antibody reactive to the phosphorylated (Thr334) form of MK2 (Cell Signaling). Cells were analyzed for phospho-MK2 positivity on a modified FACStar Plus flow cytometer using FACS Diva software (BD Biosciences).

Oc1ccc(-c2nc(-c3ccncc3)c(-c3ccc(F)cc3)[nH]2)cc1 [SB202190]
Increase in total cell numbers (relative to seeding) (young and old MuSCs): ~30 fold | Stimulation of proliferation of hydrogel-cultured MuSCs (in words) (young and old MuSCs): profound stimulation of proliferation | p38 signaling activity / MK2 phosphorylation [1]: prevents MK2 phosphorylation | p38 signaling activity / MK2 phosphorylation ([1]; listed as SB): substantially attenuated p38 signaling activity
